# Tests used:
# [1] = target: T1, purified His6-tagged NfsA_Ec (Escherichia coli, UniProt P17117); experiment: Steady-state kinetics of reduction by purified NfsA_Ec; type: biochemical, E. coli; settings: apparent, measured at 250 µM NADPH
# T1 construct: His6; made in house
# T1 sequence (P17117 1-240): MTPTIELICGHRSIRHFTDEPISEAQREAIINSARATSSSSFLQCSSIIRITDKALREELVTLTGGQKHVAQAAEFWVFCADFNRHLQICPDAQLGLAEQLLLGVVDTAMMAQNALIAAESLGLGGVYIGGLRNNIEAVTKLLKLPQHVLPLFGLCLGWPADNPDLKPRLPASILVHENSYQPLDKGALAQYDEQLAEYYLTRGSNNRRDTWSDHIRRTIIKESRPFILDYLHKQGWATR
# Description: (§1) We next sought to characterize the NfsA_Ec-mediated conversion of lead prodrug 6 in steady-state kinetics assays using purified His6-tagged NfsA_Ec. […] We therefore conducted a preliminary assessment of whether alternative bacterial NTR enzymes might hold promise for further GDEPT improvements.
# Supplementary Table S3. Steady-state kinetic parameters* for reduction of compound 6 and PR-104A by NfsA_Ec.
# Compound Km (µM) kcat (s-1) kcat/Km (mM-1 s-1)
# * Apparent kinetic parameters, measured at 250 µM NADPH
# # As previously reported by
# NfsA_Ec was purified as a His6-tagged recombinant protein as previously described. Kinetics assays were performed in 60 µl in UVettes (Eppendorf), using the 2 mm light path length. Reactions contained 10 mM Tris-Cl (pH 7.0), 4% DMSO, 0.25 mM NADPH and varying concentrations of PR - 104A or compound 6. Reactions were initiated by addition of 6 µl enzyme and changes in absorbance were measured for 20 s (during linearity). For calculation of Km and kcat, substrate concentrations were varied from ~0.2 x Km to 5 x Km. Molar extinction coefficients of 4,800 or 6,000 M-1 cm-1 were used for compound 6 and PR-104A, respectively. Non-linear regression analysis and Michaelis-Menten curve fitting was performed using Sigmaplot 10.0 (Systat Software Inc.).
# H1299 WT cells = experiment: Anti-proliferative IC50 assay, H1299 WT cells; type: cell-based; settings: Homo sapiens, NCI-H1299, 4 hour drug exposure, regrowth for five days
# Experimental: (§2) The anti-proliferative IC50 was determined as the concentration of prodrug required for 50% inhibition of cell growth, following drug exposure for four hours, then five days regrowth in the absence of drug. Assays were performed under oxic or anoxic conditions as described previously, the latter by using a 5% H2/palladium catalyst scrubbed Bactron anaerobic chamber (Sheldon Manufacturing, Cornelius, OR, USA) to achieve severe anoxia (<10 ppm O2 gas phase) during prodrug exposure.
# (§3) Supplementary Table S2. In vitro anti-proliferative activity of the three lead prodrug compounds in H1299 cells expressing E. coli NfsA. IC50 values were determined as the concentration of drug required to inhibit cell growth by 50% of untreated controls following 4 hour drug exposure, with washing and regrowth for five days.
# (§4) Compound WT NfsA_Ec Ratio
# [2] = tested on: H1299 cells expressing E. coli NfsA; experiment: Anti-proliferative IC50 assay, H1299 cells expressing E. coli NfsA; type: cell-based
# Experimental: as §2, §3, §4
# [3] = tested on: 47 different NTR candidates; experiment: GFP-SOS (DNA damage) response in E. coli SOS-R4 reporter strains expressing nitroreductase candidates; type: cell-based; settings: 20 µM, six-hour exposure, library of E. coli reporter cells
# Description: as §1
# Supplementary Figure S2. Identification of alternative nitroreductases able to activate compound 6. Bar graph displaying the fold-induction of GFP in the DNA-damage responsive E. coli reporter strain SOS-R4, following six-hour exposure to 20 µM of compound 6, compared with unchallenged replicates. Individual strains expressed nitroreductase candidates derived from different bacteria, identified by a two-letter suffix as explained in the Materials and Methods. The background SOS response induced by compound 6 in an empty plasmid control strain is indicated by the dashed line. […]
# The GFP-SOS response was determined in SOS-R4 [16] by inoculating 200 μl aliquots of LBASG (lysogeny broth supplemented with 100 μgml-1 ampicillin, 50 μgml-1 spectinomycin and 0.2% glucose (w/v)) with selected SOS-R4 nitroreductase-over-expressing strains and incubating overnight at 30 °C, 200 rpm. […] Control and challenge plates were incubated at 30 °C, 200 rpm for 6 h, at which point OD600 and GFP fluorescence (excitation 490 nm/ emission 503 nm) were measured on an Enspire™ 2300 Multilabel Reader (Perkin Elmer, Waltham, MA). […]
# 100% HCT116 AKR1C3 MCLs = experiment: 3D multicellular layer (MCL) assay, 100% HCT116 AKR1C3; type: cell-based, human; settings: 10 µM prodrug, five hours
# Experimental: Similar to the 3D NfsA_Ec screen, increased lipophilicity also tracked with increased LCK in 100% AKR1C3-expressing MCLs (R = 0.78, R^2 = 0.61). […] These three lead compounds were taken forward into in vivo studies.
# Multicellular layers (MCLs) were grown, and bystander effect assays were performed as previously reported.
# Figure 4 Lipophilic structure–activity relationship for AKR1C3 in three dimensions. (A) Plating efficiency in 100% HCT116 WT and 100% HCT116 AKR1C3 MCLs exposed to 10 µM prodrug for five hours before dissociation and plating to determine clonogenic survival. (B) Correlation between Log cell kill and LogD7.4. R = 0.78, R^2 = 0.61. Log cell kill = Log CS (control)–Log CS (treated), where CS is the number of clonogenic survivors per MCL.
# [4] = LogD7.4 by low-volume octanol/PBS shake-flask method; type: physicochemical; settings: n-octanol/PBS; octanol-water partition coefficient, shake-flask method at pH 7.4
# Experimental: Distribution ratios (LogD7.4) were determined by a low-volume octanol/PBS shake-flask method. Briefly, saturated solutions of octanol and PBS were prepared by mixing equal volumes of n-octanol and PBS (pH 7.4) before being left for three days. The octanol and PBS phases were then carefully separated and left to stand for at least 24 h. Stock solutions (0.1–0.5 mM) of each compound were prepared in octanol saturated with PBS. The stock solutions were diluted with octanol saturated with PBS containing and inter-assay control (acridone) to a final compound concentration of 50 μM. Aliquots (450 μL) were then taken in triplicate, and 450 μL of PBS saturated with octanol was added into amber tubes. The tubes were then sealed in parafilm and rotated for 90 min at 30 rpm to equilibrate. After centrifugation (15,000× g, 5 min, 20°C) the octanol and PBS phases were separated into different tubes and the octanol phase diluted with methanol (1:5 v/v). Both phases were analyzed by HPLC (diode-array detector at 364 ± 10 nm) by injecting 50 μL of the PBS phase and 15 μL of the diluted octanol phase. The results were then expressed as the log ratio of the peak areas obtained from the octanol and PBS phases corrected for dilution and injection volume.
# SiHa xenografts = experiment: Tumor excision assay, clonogenic cell kill of SiHa xenografts; type: in vivo, mice; settings: 18 h after treatment, PR-104 380 µmol/kg i.p., 6-P 1330 µmol/kg i.p.
# Experimental: The sensitivity of four cancer cell lines to prodrug 6 was determined under aerobic or anoxic conditions using an anti-proliferative IC50 assay. […] We also evaluated the hypoxic activity of 6-P versus PR-104 in vivo using a SiHa xenograft model (Figure 6B).
# When tumors reached treatment size (>400 mm^3), mice were treated with drug by a single intraperitoneal injection of pre-prodrug or vehicle. Mice treated with ionizing radiation were exposed to 10 Gray prior to drug treatment, using a cobalt-60 source from an Eldorado G unit. Animals were euthanized 18 h after drug treatment, and tumors were excised and homogenized using sterile scissors until a fine mince was obtained. Following enzymatic dissociation (2.5 mg/mL pronase, 1 mg/mL collagenase, and 0.2 mg/mL DNAase in αMEM + 10% FBS + 1% P/S, 1 mL per 50 mg), cells were plated at concentrations of 10^2–10^5 cells per 60 mm dish and grown for 10 days before colonies were stained with methylene blue (2 g/L in 50% aqueous alcohol). Colonies containing >50 cells were counted as clonogenic survivors. From these values, plating efficiency (colonies/cells plated), number of clonogens per gram of tumor tissue (plating efficiency × total cells), and log cell kill relative to vehicle treated controls (log clonogens per gram) were calculated. Statistical analysis was undertaken using Holm–Sidak’s one-way ANOVA (Sigmaplot version 11.0).
# (A) In vitro anti-proliferative activity of 6 in various cancer cell lines under aerobic and anoxic conditions. IC50 values were determined as the concentration of drug required to inhibit cell growth by 50% of untreated controls following 4 h drug exposure and five days regrowth (mean ±SEM of three or more independent determinations). (B) Clonogenic cell kill of SiHa xenografts 18 h after treatment with hypoxia activated prodrugs PR-104 (380 µmol/kg, i.p.) or 6-P (1330 µmol/kg, i.p.) with or without 10 Gy radiation.
# [5] = tested on: mixed H1299 xenograft containing 28% NfsA_Ec cells and 72% WT cells; experiment: Tumor growth delay assay, mixed H1299 xenograft; type: in vivo, mice; settings: single i.p. dose: PR-104 388 µmol/kg; 1-P 1330 µmol/kg; 2-P 750 µmol/kg; 6-P 1330 µmol/kg
# Experimental: These ratios were broadly similar to those observed in HCT116 cells (Figure 2). A mixed H1299 xenograft model containing a minority percentage (28 ± 3.3%) of NfsA_Ec-expressing cells was used in order to rank the efficacy of the prodrugs in vivo. A model such as this necessitates the presence of a robust bystander effect to achieve a tumor growth delay. Tumor-bearing mice were administered a single intraperitoneal dose of prodrugs 1-P, 2-P, and 6-P at the H1299 tumor-bearing MTD. PR-104 was administered at 388 µmol/kg, the human equivalent dose (HED) in mice that provides a plasma AUCfree of PR-104A (38 µM-h) that equates to the human Q3W MTD of 1100 mg/m^2 [22].
# An estimated starting dose was determined from related compounds. Animals were promptly euthanized if body weight loss exceeded 20% or if there were clinical signs of severe morbidity. The MTD was defined as the highest dose, at which all animals survived (death rate < 1/6) with no unacceptable morbidity, and where the next dose increment had caused at least one death. Tumors were inoculated onto the flanks of NIH-III nude mice by subcutaneous injection of 10^7 H1299 cells. Tumor-bearing mice were randomized to treatment groups (n = 5 mice per group) when tumors reached treatment size (300–350 mm^3) and injected with a single intraperitoneal dose of pre-prodrug. Tumor size and body weights were measured regularly. Tumor volume was calculated as π(Lxw^2)/6, where L is the major axis and w is the perpendicular minor axis. Animals were euthanized when the tumor volume had increased fourfold relative to pre-treatment volume (RTV4, survival endpoint) or if body weight loss exceeded 20% of the pre-treatment value. Kaplan–Meier plots were constructed, and median time to endpoint was calculated. Treatment efficacy was assessed by comparing the median survival time with untreated animals using the Log-rank test p-test (Sigmaplot version 11.0).
# Figure 5 In vivo efficacy of the three lead pre-prodrug compounds in a mixed H1299 xenograft containing 28% NfsA_Ec cells and 72% WT cells. (A) Tumor growth and (B) survival analysis of mice bearing 250 mm^3 H1299 tumors treated with a single intraperitoneal dose of prodrug on day 0. N = 5 animals per group. Control = PBS, PR-104 = 388 µmol/kg; 1-P = 1330 μmol/kg; 2-P = 750 μmol/kg; and 6-P = 1330 μmol/kg. Survival endpoint was 4× start volume (RTV4).
# [6] = cited from earlier work
SMILES,kcat [1] [s⁻¹],IC50 (H1299 WT cells) [µM],"IC50 ([2]; Escherichia coli, NCI-H1299, H1299 NfsA_Ec, 4 hour drug exposure, regrowth for five days) [µM]",WT:NfsA_Ec IC50 ratio ([2]; H1299 WT vs H1299 NfsA_Ec) [fold],Activation of the SOS (DNA damage repair) response [3],Log cell kill (LCK) (100% HCT116 AKR1C3 MCLs),logD at 90 min [4],"Log cell kill, in combination with radiotherapy (SiHa xenografts; 10 Gy radiation)","Log cell kill, single agent (SiHa xenografts)",Tumor growth delay (median time to RTV4) compared to untreated controls [5] [%],Human Q3W MTD [6] [mg/m^2]
"CCS(=O)(=O)c1cc([N+](=O)[O-])c(C(=O)N(C)CCO)cc1N(CCBr)CCBr [Compound 6, 5-(Bis(2-bromoethyl)amino)-N-(2-hydroxyethyl)-N-methyl-4-(ethylsulfonyl)-2-nitrobenzamide]",5.5 ± 0.3,222 ± 39,0.47 ± 0.1,472,broadly activated by members of both the NfsA and NfsB nitroreductase families,≤ 0.11,1.6,–,–,–,–
"CS(=O)(=O)OCCN(CCBr)c1c(C(=O)NCCOP(=O)(O)O)cc([N+](=O)[O-])cc1[N+](=O)[O-] [PR-104, 2-[(2-bromoethyl)-2,4-dinitro-6-[[[2-(phosphonooxy)ethyl]amino]carbonyl]anilino]ethyl methanesulfonate, reference compound]",–,–,–,–,–,–,–,3.72,1.38,33,1100

# — paper PMC8877822, “Interrogation of the Structure–Activity Relationship of a Lipophilic Nitroaromatic Prodrug Series Designed for Cancer Gene Therapy Applications” (Pharmaceuticals, 2022)
